Laboratory results reported in patent publication US9528090B2, “Differentiation of human embryonic stem cells” (Janssen Biotech, Inc., priority 2010, dated 2016).

Legend:
[1] = system: human embryonic stem cells line H1; experiment: Definitive endoderm differentiation of H1 cells, single cell seeding (GDF8/GSK3B inhibitor, MCDB-131): FACS for CXCR4 and CD9; type: cell-based; settings: for % CXCR4 + CD9− / % CXCR4 − CD9+ / % CXCR4 − CD9−: day 4
Method: Cells of the human embryonic stem cells line H1 (p40-p52) were seeded as single cells at a density of 100000 cells/cm^2 on MATRIGEL® (1:30 dilution) (BD Biosciences; Cat #356231)-coated dishes in MEF-CM (mouse embryonic fibroblast conditioned media) supplemented with 16 ng/ml of FGF2 (Catalog#100-18B, PeproTech, NJ) and 10 μM of Y27632 (Rock inhibitor, Catalogue#Y0503, Sigma, Mo.). 72 hrs post seeding, cultures were differentiated into definitive endoderm (DE) as follows: • a. […] MCDB-131 medium supplemented with 2% BSA, sodium bicarbonate, Glutamax, and 100 ng/ml GDF-8 for an additional three days. In some of the cultures, the cells were treated with the following concentrations of IGF (Catalogue#AF100, PeproTech, NJ): 0, 1, 10, 50, or 200 ng/ml. As a control, instead of BSA, 0.2% FBS (Catalogue#SH30070.03, Hyclone, UT) was used for day 1 of differentiation, and 2% FBS was used for days 2-4. Some of the FBS treated cultures were also treated with various concentrations of IGF. At day 4, samples were collected for FACS and gene expression analysis using real-time PCR.

[2] = system: human embryonic stem cells line H1; experiment: Definitive endoderm differentiation of H1 cells, single cell seeding (GDF8/GSK3B inhibitor): real-time PCR gene expression; type: cell-based
Method: (§1) Cells of the human embryonic stem cells line H1 (p40-p52) were seeded as single cells at a density of 100000 cells/cm^2 on MATRIGEL® (1:30 dilution) (BD Biosciences; Cat #356231)-coated dishes in MEF-CM (mouse embryonic fibroblast conditioned media) supplemented with 16 ng/ml of FGF2 (Catalog#100-18B, PeproTech, NJ) and 10 μM of Y27632 (Rock inhibitor, Catalogue#Y0503, Sigma, Mo.). 72 hrs post seeding, cultures were differentiated into definitive endoderm (DE) as follows: • a. MCDB-131 (Catalogue#10372-019, Invitrogen, CA) medium supplemented with 2% fatty acid-free BSA (Catalog#68700, Proliant, IA), 0.0025 g/ml sodium bicarbonate (Catalogue #S3187, Sigma, Mo.), 1× GlutaMax™ (Catalogue #35050-079, Invitrogen, Ca) and 100 ng/ml GDF8 (Catalogue#120-00, PeproTech, NJ) plus 2.5 μM of the GSK3B inhibitor 14-Prop-2-en-1-yl-3,5,7,14,17,23,27-heptaazatetracyclo [19.3.1.1˜2,6˜0.1˜8,12˜]heptacosa-1(25),2(27),3,5,8(26),9,11,21,23-nonaen-16-one for one day, then • b. MCDB-131 medium supplemented with 2% BSA, sodium bicarbonate, Glutamax, and 100 ng/ml GDF-8 for an additional three days.
In some of the cultures, the cells were treated with the following concentrations of IGF (Catalogue#AF100, PeproTech, NJ): 0, 1, 10, 50, or 200 ng/ml. As a control, instead of BSA, 0.2% FBS (Catalogue#SH30070.03, Hyclone, UT) was used for day 1 of differentiation, and 2% FBS was used for days 2-4. Some of the FBS treated cultures were also treated with various concentrations of IGF.
At day 4, samples were collected for FACS and gene expression analysis using real-time PCR.
Cultures treated with medium supplemented with FBS were much more sensitive to the inhibitory effect of IGF. […] These observations was further supported by immuno fluorescence (IF) staining for the DE marker SOX17 (Catalogue #AF 1924, R & D systems, MN) (FIGS. 8-9).

[3] = system: human embryonic stem cells line H1; experiment: Definitive endoderm differentiation of H1 cells in FBS medium (GDF8/GSK3B inhibitor) with IGF or insulin: FACS and real-time PCR; type: cell-based; settings: in the presence of FBS, 10-100 ng/ml, day 4
Method: as §1, with “a. with” for “a.”, “0.2% FBS (Catalogue#SH30070.03, Hyclone, UT),” for “2% fatty acid-free BSA (Catalog#68700, Proliant, IA),”, “14-Prop-2-en-1-yl-3,5,7,14,17,23,27-heptaazatetracyclo[19.3.1.1˜2,6˜0.1˜8,12˜]heptacosa-1(25),2(27),3,5,8(26),9,11,21,23-nonaen-16-one” for “14-Prop-2-en-1-yl-3,5,7,14,17,23,27-heptaazatetracyclo [19.3.1.1˜2,6˜0.1˜8,12˜]heptacosa-1(25),2(27),3,5,8(26),9,11,21,23-nonaen-16-one”, “FBS,” for “2% BSA,”, “GDF8” for “GDF-8”
0.5% FBS was used for day 2 and 2% FBS was used for days 3-4. Besides regular FBS, heat treated FBS (Catalogue#F4135, Sigma, Mo.) and charcoal stripped treated FBS (Catalogue#F6765, Sigma, Mo.) were also tested. Some of the FBS treated cultures were also treated with various concentrations of IGF (10-100 ng/ml) or insulin (10-100 ng/ml).
At day 4, samples were collected for analysis by FACS and real-time PCR.

[4] = system: ES cells; settings: 25 ng/ml of IGF added to 2% FBS, MEF-CM, activin A; cited from earlier work
[5] = IGF 50-200 ng/ml, BSA treated cultures

Substance: IGF
- % CXCR4 + CD9− ([1]; BSA + 1 ng/ml IGF): 92%
- % CXCR4 − CD9+ ([1]; BSA + 1 ng/ml IGF): 0.8%
- % CXCR4 − CD9− ([1]; BSA + 1 ng/ml IGF): 3%
- % CXCR4 + CD9− ([1]; BSA + 10 ng/ml IGF): 90%
- % CXCR4 − CD9+ ([1]; BSA + 10 ng/ml IGF): 1.3%
- % CXCR4 − CD9− ([1]; BSA + 10 ng/ml IGF): 5.3%
- % CXCR4 + CD9− ([1]; BSA + 50 ng/ml IGF): 87%
- % CXCR4 − CD9+ ([1]; BSA + 50 ng/ml IGF): 6%
- % CXCR4 − CD9− ([1]; BSA + 50 ng/ml IGF): 3.5%
- % CXCR4 + CD9− ([1]; BSA + 200 ng/ml IGF): 79%
- % CXCR4 − CD9+ ([1]; BSA + 200 ng/ml IGF): 10%
- % CXCR4 − CD9− ([1]; BSA + 200 ng/ml IGF): 8%
- % CXCR4 + CD9− ([1]; FBS + 1 ng/ml IGF): 89%
- % CXCR4 − CD9+ ([1]; FBS + 1 ng/ml IGF): 3%
- % CXCR4 − CD9− ([1]; FBS + 1 ng/ml IGF): 3.6%
- % CXCR4 + CD9− ([1]; FBS + 10 ng/ml IGF): 87%
- % CXCR4 − CD9+ ([1]; FBS + 10 ng/ml IGF): 6.4%
- % CXCR4 − CD9− ([1]; FBS + 10 ng/ml IGF): 3.3%
- % CXCR4 + CD9− ([1]; FBS + 50 ng/ml IGF): 78%
- % CXCR4 − CD9+ ([1]; FBS + 50 ng/ml IGF): 6.8%
- % CXCR4 − CD9− ([1]; FBS + 50 ng/ml IGF): 13.2%
- % CXCR4 + CD9− ([1]; FBS + 200 ng/ml IGF): 70%
- % CXCR4 − CD9+ ([1]; FBS + 200 ng/ml IGF): 13.4%
- % CXCR4 − CD9− ([1]; FBS + 200 ng/ml IGF): 12.9%
- CXCR4+CD9− cells [1, 5]: drop in expression
- CXCR4−CD9+ fraction [1, 5]: increase in expression
- CXCr4+CD9− fraction ([1]; increasing doses of IGF, FBS treated versus BSA treated cultures): more significant drop
- expression of markers associated with definitive endoderm (FOXA2, SOX17, CER1, CXCR4) ([2]; 1-200 ng/ml of IGF, BSA treated cultures, versus no IGF): did not significantly affect
- expression of the embryonic marker NANOG ([2]; 50-200 ng/ml of IGF): did increase expression
- expression of SOX17, HNF3B and CXCR4 ([2]; FBS supplemented cultures, increasing IGF): decreased with increasing concentration
- expression of the pluripotency marker NANOG [3]: upregulated
- markers associated with definitive endoderm such as SOX17 and CCXR4 [3]: dose dependently down regulated
- decrease of the expression of SOX17 [4]: approximately 70%
